Target: T1, SR-BI (Mus musculus, UniProt Q61009)
T1 sequence (Q61009 1-509): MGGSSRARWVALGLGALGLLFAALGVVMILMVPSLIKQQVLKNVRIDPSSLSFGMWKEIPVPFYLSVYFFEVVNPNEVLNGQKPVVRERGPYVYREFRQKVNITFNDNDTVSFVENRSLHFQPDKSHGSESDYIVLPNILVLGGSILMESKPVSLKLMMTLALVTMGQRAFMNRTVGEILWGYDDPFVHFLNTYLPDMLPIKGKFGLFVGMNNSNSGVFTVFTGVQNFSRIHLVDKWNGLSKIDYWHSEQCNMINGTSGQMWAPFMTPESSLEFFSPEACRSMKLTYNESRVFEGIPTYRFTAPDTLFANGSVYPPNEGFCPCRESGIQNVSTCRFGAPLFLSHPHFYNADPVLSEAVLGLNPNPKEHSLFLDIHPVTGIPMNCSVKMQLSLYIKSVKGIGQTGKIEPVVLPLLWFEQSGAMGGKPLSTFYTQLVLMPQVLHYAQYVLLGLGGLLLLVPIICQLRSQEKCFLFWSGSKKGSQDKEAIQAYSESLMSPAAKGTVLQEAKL
Assay: Radioactive HDL uptake assay (wild type SR-BI)
Type: cell-based, murine
Set-up: expressed in transfected cells; host or cells: ldlA[mSR-BI], Chinese hamster ovary (CHO) cells lacking LDL receptor (Krieger Laboratory)
Conditions: [3H]cholesteryl ester HDL; read-out: IC50 in nonfluorescent, radiolabeled version of the uptake assay
Description: Radioactive HDL Uptake Assay (Wild Type SR-BI) (SA 8: AID No. 588836)
The goal of this assay was to verify compounds that disrupt the lipid uptake from HDL particles to SR-BI scavenger receptor-expressing cells using an alternative means of labeling HDL-particles and avoiding any type of fluorescence measurement. To measure this binding event, HDL particles are labeled with [^3H]cholesteryl ester and added to mSR-BI expressing cells. Cells take up the radioactive lipids from HDL via SR-BI in 2 to 3 hours. After significant uptake of the lipids from HDL, the radiolabel can be detected by liquid scintillation counting. The level of radioactivity correlates with the amount of HDL lipid uptake. The uptake of lipid from the HDL particles can be inhibited by the compound BLT-1 or when co-treated with an excess of unlabeled HDL. The mSR-BI expressing cells utilized in the assay are a Chinese hamster ovary (CHO) cell line lacking expression of the LDL receptors and overexpressing the scavenger receptor, SR-BI. Inhibitors of SR-BI and HDL lipid uptake will have a reduction in liquid scintillation counts.

SMILES: C[C@H](C(=O)NC1CCCC1)N(C(=O)Cn1nnc(-c2ccc3c(c2)OCO3)n1)C1CCCCC1 [ML279, (R)-2-(2-(5-(Benzo[d][1,3]dioxol-5-yl)-2H-tetrazol-2-yl)-N-cyclohexylacetamido)-N-cyclopentylpropanamide]
- IC50: 1000 nM

— patent publication US9884851B2, “Heterocycle-bisamide inhibitors of scavenger receptor BI” (THE BROAD INSTITUTE, INC., priority 2012, dated 2018)
